Measured values from patent US10919902B2, “Hetero-halo inhibitors of histone deacetylase” (Alkermes, Inc., priority 2015, dated 2021).

The molecules below were run against recombinant human HDACs (Homo sapiens) (assay: HDAC enzymatic assay). Conditions: 5 nM HDAC enzyme, 5 h pre-incubation, 17 h reaction at 25° C.; isoform not given; read-out: IC50.
Assay type: biochemical
Description: All recombinant human HDACs were purchased from BPS Bioscience. The substrate, FAM-TSRHK(AC)KL-CONH, was synthesized at NanoSyn. Final assay reactions contained 100 mM HEPES (pH 7.5), 50 mM KCl, 0.1% BSA, 0.01% Triton X-100, 1% DMSO, 1 uM substrate and 5 nM HDAC enzyme. Enzyme and compounds were pre-incubated at 25° C. for 5 hours and reactions were initiated by addition of substrate. 10 uL reactions were incubated for 17 hours at 25° C. and terminated by the addition of 40 uL of buffer containing 100 mM HEPES (pH 7.5), 0.1% BSA, 0.01% Triton X-100 and 0.05% SDS. Substrate and product peptides present in each sample were separated electrophoretically using the LabChip 3000 capillary electrophoresis instrument. Change in the relative fluorescence intensity of the substrate and product peaks reflects enzyme activity. Reaction progress was determined as the product to sum ratio (PSR):P/(S+P), where P is the peak height of the product peptide and S is the peak height of the substrate peptide. Reactions were performed in duplicate at 12 concentrations, (3× serial dilutions starting at 30 uM). IC50 values were calculated using a 4 Parameter Logistic Model.
`CN1CCN(C[C@@H]2[C@H]3CN(C(=O)Nc4nc(-c5ccc(F)cc5)ccc4N)C[C@@H]23)CC1` [Compound 269] showed an IC50 greater than 5000 nM. `Nc1ccc(-c2ccc(F)cc2)nc1NC(=O)N1Cc2ccc(CN3CCC(C(F)(F)F)C3)cc2C1` (centres unmarked) [Compound 408] was tested, and the IC50 was 100 to 500 nM. Molecule `Nc1ccc(-c2ccccc2)nc1NC(=O)C1CCN(Cc2cccnc2)CC1` [Compound 377] has an IC50 greater than 5000 nM. `Cn1cc(CN2CCCC3(CCC(C(=O)Nc4nc(-c5ccc(F)cc5)ccc4N)C3)C2)cn1` (centres unmarked) [Compound 223] showed an IC50 greater than 5000 nM. Molecule `CN(C1COC1)[C@H]1[C@@H]2CN(C(=O)Nc3nc(-c4ccc(F)cc4)ccc3N)C[C@@H]21` [Compound 262] has an IC50 greater than 5000 nM. In the case of `Cc1ccc(C2CN(C(=O)Nc3nc(-c4ccc(F)cc4)ccc3N)C2)cc1` [Compound 170], the IC50 is reported as 500 to 5000 nM. Molecule `CN(C)Cc1ccc2c(c1)CN(C(=O)Nc1nc(-c3ccc(Cl)s3)ccc1N)C2` [Compound 401] has an IC50 greater than 5000 nM. `CN1CCN(c2ccc3c(n2)CN(C(=O)Nc2nc(-c4ccc(F)cc4)ccc2N)C3)CC1` [Compound 391] was tested, and the IC50 was 100 to 500 nM. Molecule `CN1CCn2cc(C(=O)Nc3nc(-c4ccccc4)ccc3N)nc2C1` [Compound 206] has an IC50 of 500 to 5000 nM. Work on `Nc1ccc(-c2ccc(F)cc2)nc1NC(=O)N1Cc2cccc(F)c2C1` [Compound 259] yielded an IC50 of 100 to 500 nM. With `Nc1cn(-c2ccccc2)nc1NC(=O)N1CCC2(CCOCC2)C1` [Compound 407] the IC50 was greater than 5000 nM. `CN1CCC(c2cnc3c(c2)CN(C(=O)Nc2nc(-c4cccnc4)ccc2N)C3)CC1` [Compound 265] gave an IC50 of 500 to 5000 nM. Molecule `Nc1ccc(-c2cccnc2)nc1NC(=O)N1Cc2cc(F)cnc2C1` [Compound 218] has an IC50 greater than 5000 nM. `Nc1ccc(-c2ccc(F)cc2)nc1NC(=O)N1Cc2cc(CN3CCC(F)(F)C3)cnc2C1` [Compound 273] was tested, and the IC50 was 100 to 500 nM. `COCc1ccc2c(c1)CN(C(=O)Nc1nc(-c3cccnc3)ccc1N)C2` [Compound 393] showed an IC50 of 500 to 5000 nM. With `CN1CCN(c2ccc3c(c2)CN(C(=O)Nc2nc(-c4ccc(F)cc4)ccc2N)C3)CC1` [Compound 374] the IC50 was 100 to 500 nM. Molecule `CN(C)Cc1ccc(C2CN(C(=O)Nc3nc(-c4ccc(F)cc4)ccc3N)C2)cc1` [Compound 146] has an IC50 of 100 to 500 nM. Molecule `COC[C@@H]1[C@H]2CN(C(=O)Nc3nc(-c4ccc(F)cc4)ccc3N)C[C@@H]12` [Compound 276] has an IC50 of 500 to 5000 nM. Molecule `Nc1ccc(-c2ccccc2)nc1NC(=O)C1CCN(C2COC2)CC1` [Compound 381] has an IC50 greater than 5000 nM. `Nc1ccc(-c2ccc(F)cc2)nc1NC(=O)N1CC2CN(CC3CCOCC3)CC2C1` (centres unmarked) [Compound 235] was tested, and the IC50 was greater than 5000 nM. Molecule `CN(C)Cc1ccc2c(c1)CN(C(=O)Nc1nc(-c3cccs3)ccc1N)C2` [Compound 409] has an IC50 of 100 to 500 nM. For `Nc1ccc(-c2cccnc2)nc1NC(=O)c1nc2c(s1)CCN(CCF)C2` [Compound 164], the IC50 was 500 to 5000 nM. In the case of `Nc1ccc(-c2ccc(F)cc2)nc1NC(=O)N1Cc2ccc(CO)cc2C1` [Compound 366], the IC50 is reported as 100 to 500 nM. In the case of `CN1CCc2sc(C(=O)Nc3nc(-c4ccco4)ccc3N)nc2C1` [Compound 163], the IC50 is reported as 100 to 500 nM. `Nc1ccc(-c2ccc(F)cc2)nc1NC(=O)N1CCN(C(=O)C2C[C@H]2c2ccccc2)CC1` (some centres unmarked) [Compound 225] was tested, and the IC50 was 500 to 5000 nM. Molecule `Nc1ccc(-c2ccc(F)cc2)nc1NC(=O)C1[C@H]2CN(C3COC3)C[C@@H]12` (some centres unmarked) [Compound 239] has an IC50 greater than 5000 nM. `Nc1ccc(-c2ccc(F)cc2)nc1NC(=O)N1CC2CCCC2C1` (centres unmarked) [Compound 385] showed an IC50 of 500 to 5000 nM. Work on `CN1CCC(C(=O)Nc2nn(-c3ccccc3)cc2N)CC1` [Compound 354] yielded an IC50 greater than 5000 nM. In the case of `CC(C)Cc1cnc2c(c1)CN(C(=O)Nc1nc(-c3ccc(F)cc3)ccc1N)C2` [Compound 274], the IC50 is reported as 100 to 500 nM. Work on `Nc1ccc(-c2ccc(F)cc2)nc1NC(=O)N1CC2COCC2C1` (centres unmarked) [Compound 392] yielded an IC50 of 500 to 5000 nM. `CN1CCN(c2cnc3c(c2)CN(C(=O)Nc2nc(-c4ccc(F)cc4)ccc2N)C3)CC1` [Compound 159] gave an IC50 of 100 to 500 nM. `Nc1ccc(-c2ccc(F)cc2)nc1NC(=O)N1Cc2cc(CN3CCCC3)cnc2C1` [Compound 155] gave an IC50 of 100 to 500 nM. `Nc1ccc(-c2ccccc2)nc1NC(=O)N1CCn2cncc2C1` [Compound 212] was tested, and the IC50 was greater than 5000 nM. In the case of `CN1CCCC2(CCN(C(=O)Nc3nc(-c4cccnc4)ccc3N)C2)C1` (centres unmarked) [Compound 211], the IC50 is reported as greater than 5000 nM. `CN(C)Cc1cnc2c(c1)CN(C(=O)Nc1nc(-c3ccc(F)cc3)ccc1N)C2` [Compound 154] showed an IC50 of 100 to 500 nM. `CN(C)Cc1cnc2c(c1)CN(C(=O)Nc1nc(-c3cccnc3)ccc1N)C2` [Compound 161] was tested, and the IC50 was 100 to 500 nM. `Cc1cnc(C(=O)Nc2nn(-c3ccccc3)cc2N)s1` [Compound 126] was tested, and the IC50 was 500 to 5000 nM. Molecule `CN1CCN(C2CC3CN(C(=O)Nc4nc(-c5ccc(F)cc5)ccc4N)CC3C2)CC1` (centres unmarked) [Compound 179] has an IC50 of 500 to 5000 nM. Molecule `Nc1ccc(-c2ccccc2)nc1NC(=O)N1CC2CC(NC3COC3)CC2C1` (centres unmarked) [Compound 191] has an IC50 of 500 to 5000 nM. `CN(C)Cc1ccc2c(c1)CN(C(=O)Nc1nn(-c3ccccc3)cc1N)C2` [Compound 351] gave an IC50 of 100 to 500 nM. Work on `Nc1ccc(-c2ccc(F)cc2)nc1NC(=O)N1Cc2ccc(CN3CCC(F)(F)C3)cc2C1` [Compound 386] yielded an IC50 of 100 to 500 nM. `CN1CC(CC(=O)Nc2nc(-c3ccc(F)cc3)ccc2N)C1` [Compound 376] gave an IC50 greater than 5000 nM. Work on `Nc1ccc(-c2ccccc2)nc1NC(=O)CN1CCn2cncc2C1` [Compound 194] yielded an IC50 greater than 5000 nM. `COC1CCN(C(=O)Nc2nc(-c3ccc(F)cc3)ccc2N)C1` (centres unmarked) [Compound 388] was tested, and the IC50 was 500 to 5000 nM. `Nc1ccc(-c2cccs2)nc1NC(=O)N1Cc2cc(CN3CCCC3)cnc2C1` [Compound 144] gave an IC50 of 100 to 500 nM. `CC(=O)N1CCC(C(=O)Nc2nc(-c3ccccc3)ccc2N)CC1` [Compound 380] was tested, and the IC50 was greater than 5000 nM. Molecule `Nc1ccc(-c2ccc(F)cc2)nc1NC(=O)N1Cc2cc(CN3CC(F)C3)cnc2C1` [Compound 275] has an IC50 of 100 to 500 nM. In the case of `CN(C)Cc1cnc2c(c1)CN(C(=O)Nc1nc(-c3cccs3)ccc1N)C2` [Compound 145], the IC50 is reported as 100 to 500 nM. For `Nc1cn(-c2ccc(F)cc2)nc1NC(=O)N1CCN(C(=O)[C@@H]2C[C@H]2c2ccccc2)CC1` [Compound 125], the IC50 was 500 to 5000 nM. `Nc1cn(-c2ccccc2)nc1NC(=O)N1CCN(C2COC2)CC1` [Compound 356] showed an IC50 greater than 5000 nM. `CN1CC2CN(C(=O)Nc3nc(-n4cccn4)ccc3N)CC2C1` (centres unmarked) [Compound 184] showed an IC50 greater than 5000 nM. Work on `CC(=O)N1CCN(CC(=O)Nc2nc(-c3ccccc3)ccc2N)CC1` [Compound 196] yielded an IC50 greater than 5000 nM. Molecule `COc1ccc(-c2ccc(N)c(NC(=O)N3Cc4cc(F)cnc4C3)n2)cc1` [Compound 187] has an IC50 of 500 to 5000 nM. In the case of `Nc1ccc(-n2cccn2)nc1NC(=O)C1CN(Cc2ccccc2)C1` [Compound 205], the IC50 is reported as greater than 5000 nM. For `CN1CC(N2C[C@@H]3C(C(=O)Nc4nc(-c5ccc(F)cc5)ccc4N)[C@@H]3C2)C1` (some centres unmarked) [Compound 241], the IC50 was greater than 5000 nM. For `COCC1CCN(C(=O)Nc2nc(-c3ccc(F)cc3)ccc2N)C1` (centres unmarked) [Compound 389], the IC50 was greater than 5000 nM. For `Nc1ccc(-c2ccc(F)cc2)nc1NC(=O)N1C[C@@H]2[C@@H](CO)[C@@H]2C1` [Compound 238], the IC50 was 500 to 5000 nM. `Nc1ccc(-c2ccc(F)cc2)nc1NC(=O)N1Cc2cncnc2C1` [Compound 277] was tested, and the IC50 was 500 to 5000 nM. Work on `CN1CCN(C(=O)Nc2nn(-c3ccccc3)cc2N)CC1` [Compound 361] yielded an IC50 greater than 5000 nM. Molecule `Nc1ccc(-n2cccn2)nc1NC(=O)N1Cc2ccncc2C1` [Compound 369] has an IC50 of 500 to 5000 nM. With `Nc1ccc(-c2ccc(F)cc2)nc1NC(=O)N1Cc2cc(C3CC3)cnc2C1` [Compound 255] the IC50 was 100 to 500 nM. `COC1CCN(Cc2ccc3c(c2)CN(C(=O)Nc2nc(-c4ccc(F)cc4)ccc2N)C3)C1` (centres unmarked) [Compound 363] was tested, and the IC50 was 100 to 500 nM. `Nc1ccc(-c2ccc(F)cc2)nc1NC(=O)N1C[C@@H]2[C@@H](CN3CCC3)[C@@H]2C1` [Compound 270] gave an IC50 greater than 5000 nM. For `Nc1ccc(-c2ccc(F)cc2)nc1NC(=O)N1CC2CN(C3COC3)CC2C1` (centres unmarked) [Compound 203], the IC50 was greater than 5000 nM. In the case of `CN1CCC(N2CCC(C(=O)Nc3nc(-c4ccc(F)cc4)ccc3N)CC2)CC1` [Compound 368], the IC50 is reported as 500 to 5000 nM. With `CN1CCN(Cc2cccc3c2CN(C(=O)Nc2nc(-c4ccc(F)cc4)ccc2N)C3)CC1` [Compound 178] the IC50 was greater than 5000 nM. In the case of `Nc1ccc(-c2ccc(F)cc2)nc1NC(=O)N1Cc2cc(N3CCC3)cnc2C1` [Compound 157], the IC50 is reported as 100 to 500 nM. In the case of `Nc1cn(-c2ccccc2)nc1NC(=O)N1Cc2ccc(CO)cc2C1` [Compound 350], the IC50 is reported as 500 to 5000 nM. `Cn1ncc2c1CN(C(=O)Nc1nc(-c3ccc(F)cc3)ccc1N)C2` [Compound 258] gave an IC50 of 500 to 5000 nM. For `Nc1ccc(-c2ccco2)nc1NC(=O)N1CC2CN(C3COC3)CC2C1` (centres unmarked) [Compound 182], the IC50 was greater than 5000 nM. In the case of `Nc1ccc(-c2ccc(F)cc2)nc1NC(=O)C1[C@H]2CN(C3CCOCC3)C[C@@H]12` (some centres unmarked) [Compound 264], the IC50 is reported as greater than 5000 nM. `Nc1ccc(-c2ccc(F)cc2)nc1NC(=O)N1CCC(F)(F)C1` [Compound 364] was tested, and the IC50 was 500 to 5000 nM. Work on `Nc1ccc(-c2ccc(F)cc2)nc1NC(=O)N1C[C@@H]2[C@H](C1)[C@H]2NC1COC1` [Compound 267] yielded an IC50 greater than 5000 nM. Molecule `Nc1ccc(-c2ccc(F)cc2)nc1NC(=O)N1CC2CN(C3CCOCC3)CC2C1` (centres unmarked) [Compound 236] has an IC50 greater than 5000 nM. With `CN1CCC(COC(=O)Nc2nc(-c3cccnc3)ccc2N)CC1` [Compound 375] the IC50 was greater than 5000 nM. `Nc1ccc(-c2ccc(F)cc2)nc1NC(=O)N1CC2CN(CCF)CC2C1` (centres unmarked) [Compound 183] showed an IC50 greater than 5000 nM. For `Nc1ccc(-c2ccc(F)cc2)nc1NC(=O)N1CC2CN(Cc3ccccc3F)CC2C1` (centres unmarked) [Compound 176], the IC50 was 500 to 5000 nM.
